In ChEMBL document CHEMBL4507292 (2021):

Assays:
Rattus norvegicus [1] = species on record: Rattus norvegicus; experiment: Testosterone Eurofins-Panlabs radioligand binding assay; design: ligand concentration 1.5 nM; details: Compound concentration 10.0 uM
[2] = target: Sodium-dependent noradrenaline transporter (Homo sapiens, UniProt P23975); experiment: Inhibition of Transporter, Norepinephrine (NET) at compound concentration of 10.0 uM in the Eurofins-Panlabs radioligand binding assay (Eurofins_assay_204410); design: ligand concentration 0.2 nM, non-specific ligand with concentration 10 uM Desipramine, incubation time 3 h, incubation temperature 4 C
Sequence of Sodium-dependent noradrenaline transporter (P23975 whole entry): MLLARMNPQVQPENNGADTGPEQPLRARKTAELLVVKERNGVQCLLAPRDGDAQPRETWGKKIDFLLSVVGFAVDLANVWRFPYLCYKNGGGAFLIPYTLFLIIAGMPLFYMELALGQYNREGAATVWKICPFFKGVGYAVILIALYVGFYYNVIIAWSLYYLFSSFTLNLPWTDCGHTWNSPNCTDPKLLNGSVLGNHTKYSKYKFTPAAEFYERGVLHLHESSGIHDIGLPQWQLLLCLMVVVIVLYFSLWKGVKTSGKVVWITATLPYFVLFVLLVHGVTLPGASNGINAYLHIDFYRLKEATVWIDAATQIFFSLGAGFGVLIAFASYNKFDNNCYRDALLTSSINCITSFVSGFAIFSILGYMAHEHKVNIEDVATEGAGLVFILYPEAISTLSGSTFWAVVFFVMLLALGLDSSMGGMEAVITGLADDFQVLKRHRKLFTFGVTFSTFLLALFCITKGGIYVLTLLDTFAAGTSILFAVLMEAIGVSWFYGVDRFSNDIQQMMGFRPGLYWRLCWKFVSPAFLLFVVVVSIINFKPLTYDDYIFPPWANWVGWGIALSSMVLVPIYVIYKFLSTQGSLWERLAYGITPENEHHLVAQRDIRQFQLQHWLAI

Caspase-1 (Homo sapiens) = Caspase-1 (Homo sapiens) (UniProt P29466); experiment: Inhibition of Peptidase, CASP1 (Caspase 1) at 10 µM in the Eurofins-Panlabs enzyme assay (Eurofins_assay_163000); details: Compound concentration 10.0 uM
[3] = target: Receptor-type tyrosine-protein phosphatase C (Homo sapiens) (UniProt P08575); experiment: Inhibition of Protein Tyrosine Phosphatase, PTPRC (CD45) at 10 µM in the Eurofins-Panlabs enzyme assay (Eurofins_assay_190010); details: Compound concentration 10.0 uM
Sequence of Receptor-type tyrosine-protein phosphatase C (Homo sapiens) (P08575 whole entry): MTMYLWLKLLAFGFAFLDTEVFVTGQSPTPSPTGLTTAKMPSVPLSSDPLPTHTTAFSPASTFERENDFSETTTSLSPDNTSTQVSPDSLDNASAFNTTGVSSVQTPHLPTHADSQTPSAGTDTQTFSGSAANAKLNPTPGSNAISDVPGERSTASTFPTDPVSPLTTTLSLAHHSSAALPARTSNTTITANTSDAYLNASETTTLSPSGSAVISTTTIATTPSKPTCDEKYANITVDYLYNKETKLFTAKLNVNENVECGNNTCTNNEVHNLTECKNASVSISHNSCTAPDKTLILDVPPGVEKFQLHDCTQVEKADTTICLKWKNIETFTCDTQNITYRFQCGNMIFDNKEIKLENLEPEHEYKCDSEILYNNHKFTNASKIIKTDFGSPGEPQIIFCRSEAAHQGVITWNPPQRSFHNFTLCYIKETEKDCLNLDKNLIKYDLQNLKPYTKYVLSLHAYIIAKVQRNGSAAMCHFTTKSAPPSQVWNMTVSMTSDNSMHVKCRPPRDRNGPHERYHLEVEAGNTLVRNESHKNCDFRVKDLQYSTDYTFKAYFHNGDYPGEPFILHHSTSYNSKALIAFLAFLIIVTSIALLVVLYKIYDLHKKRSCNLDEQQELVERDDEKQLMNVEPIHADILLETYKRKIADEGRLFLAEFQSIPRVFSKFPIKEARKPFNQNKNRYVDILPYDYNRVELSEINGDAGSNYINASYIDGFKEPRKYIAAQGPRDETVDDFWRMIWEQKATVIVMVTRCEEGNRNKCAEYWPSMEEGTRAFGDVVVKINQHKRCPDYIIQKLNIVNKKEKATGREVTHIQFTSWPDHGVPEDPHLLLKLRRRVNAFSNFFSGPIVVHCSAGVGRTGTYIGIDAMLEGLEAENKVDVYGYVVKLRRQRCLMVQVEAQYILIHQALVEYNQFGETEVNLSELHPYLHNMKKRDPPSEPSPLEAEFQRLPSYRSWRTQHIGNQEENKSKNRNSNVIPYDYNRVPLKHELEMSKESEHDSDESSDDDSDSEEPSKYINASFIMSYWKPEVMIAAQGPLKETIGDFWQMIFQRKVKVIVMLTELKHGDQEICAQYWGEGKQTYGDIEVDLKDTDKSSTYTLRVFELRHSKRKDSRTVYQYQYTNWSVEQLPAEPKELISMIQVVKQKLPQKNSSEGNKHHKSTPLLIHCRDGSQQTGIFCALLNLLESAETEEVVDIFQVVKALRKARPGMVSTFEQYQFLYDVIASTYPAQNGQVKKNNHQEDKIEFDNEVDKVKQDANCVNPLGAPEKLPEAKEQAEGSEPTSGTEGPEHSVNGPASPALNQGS

Rattus norvegicus [4] = species on record: Rattus norvegicus; experiment: Inhibition of Glycine, Strychnine-Sensitive at 10 µM in the Eurofins-Panlabs radioligand binding assay (Eurofins_assay_239000); details: Compound concentration 10.0 uM
[5] = target: Melanocortin receptor 5 (Homo sapiens) (UniProt P33032); experiment: Inhibition of Melanocortin MC5 at 10 µM in the Eurofins-Panlabs radioligand binding assay (Eurofins_assay_251400); design: ligand concentration 0.035 nM; details: Compound concentration 10.0 uM
[6] = target: Tyrosine 3-monooxygenase (Homo sapiens) (UniProt P07101); experiment: Tyrosine Hydroxylase Eurofins-Panlabs enzyme assay; design: substrate with concentration; details: Rattus norvegicus; Compound concentration 10.0 uM
[7] = target: Peroxisome proliferator-activated receptor alpha (Homo sapiens) (UniProt Q07869); experiment: PPARalpha Eurofins-Panlabs radioligand binding assay; details: Compound concentration 10.0 uM
Sequence of Peroxisome proliferator-activated receptor alpha (Homo sapiens) (Q07869 whole entry): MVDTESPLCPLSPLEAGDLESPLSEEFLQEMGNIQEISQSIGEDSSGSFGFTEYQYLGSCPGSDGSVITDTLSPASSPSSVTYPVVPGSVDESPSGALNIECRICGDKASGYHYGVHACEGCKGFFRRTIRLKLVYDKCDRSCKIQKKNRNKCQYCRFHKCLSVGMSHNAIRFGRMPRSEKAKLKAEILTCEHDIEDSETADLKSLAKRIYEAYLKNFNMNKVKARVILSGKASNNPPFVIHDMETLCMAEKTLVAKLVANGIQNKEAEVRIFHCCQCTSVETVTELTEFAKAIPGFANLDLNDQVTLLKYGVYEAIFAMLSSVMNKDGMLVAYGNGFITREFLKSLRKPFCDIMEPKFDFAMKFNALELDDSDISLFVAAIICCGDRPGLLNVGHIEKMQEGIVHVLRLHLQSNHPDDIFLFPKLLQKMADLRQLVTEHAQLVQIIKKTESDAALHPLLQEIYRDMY

[8] = target: T1, Prostaglandin E2 receptor EP3 subtype (Homo sapiens) (UniProt P43115); experiment: (§1) Prostanoid EP3 Eurofins-Panlabs radioligand binding assay; design: ligand concentration 0.5 nM, non-specific ligand with concentration 10 µM Prostaglandin EŽ2 (PGE2), incubation time 60 min, incubation temperature 25 °C
T1 sequence (whole entry): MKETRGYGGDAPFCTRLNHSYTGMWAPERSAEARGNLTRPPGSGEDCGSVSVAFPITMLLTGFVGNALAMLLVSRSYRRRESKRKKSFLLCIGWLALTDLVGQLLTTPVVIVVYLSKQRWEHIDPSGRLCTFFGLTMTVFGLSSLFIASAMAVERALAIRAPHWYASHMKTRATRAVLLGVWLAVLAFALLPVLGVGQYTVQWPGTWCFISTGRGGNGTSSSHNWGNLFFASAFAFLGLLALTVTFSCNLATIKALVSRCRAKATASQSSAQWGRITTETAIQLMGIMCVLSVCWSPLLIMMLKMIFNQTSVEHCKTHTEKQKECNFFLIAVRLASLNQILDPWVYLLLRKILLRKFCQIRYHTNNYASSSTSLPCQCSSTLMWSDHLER

[9] = target: Prostaglandin E2 receptor EP3 subtype (Homo sapiens, UniProt P43115); experiment: as §1; design: ligand concentration 0.5 nM, non-specific ligand with concentration 10 µM Prostaglandin EŽ2 (PGE2), incubation time 60 min, incubation temperature 25 °C
Caspase-6 (Homo sapiens) = Caspase-6 (Homo sapiens) (UniProt P55212); experiment: Peptidase, CASP6 (Caspase 6) Eurofins-Panlabs enzyme assay; design: substrate with concentration; details: Compound concentration 10.0 uM
[10] = target: Phosphodiesterase PDE1 (Bos taurus) (UniProt Q01061+P14100+A0A3Q1MCV4); experiment: (§2) Phosphodiesterase PDE1 Eurofins-Panlabs enzyme assay; format: protein assay; design: substrate with concentration [3H] cAMP + cAMP, incubation time 20 min, incubation temperature 25 °C
Phosphodiesterase PDE1 = Phosphodiesterase PDE1 (Bos taurus, UniProt Q01061+P14100+A0A3Q1MCV4); experiment: as §2; format: protein assay; design: substrate with concentration [3H] cAMP + cAMP, incubation time 20 min, incubation temperature 25 °C
[11] = target: Epidermal growth factor receptor (Homo sapiens, UniProt P00533); experiment: Protein Tyrosine Kinase, EGF Receptor Eurofins-Panlabs enzyme assay; design: substrate with concentration 10 µg/mL Poly(Glu:Tyr), incubation time 60 min, incubation temperature 25 °C
Sequence of Epidermal growth factor receptor (P00533 whole entry): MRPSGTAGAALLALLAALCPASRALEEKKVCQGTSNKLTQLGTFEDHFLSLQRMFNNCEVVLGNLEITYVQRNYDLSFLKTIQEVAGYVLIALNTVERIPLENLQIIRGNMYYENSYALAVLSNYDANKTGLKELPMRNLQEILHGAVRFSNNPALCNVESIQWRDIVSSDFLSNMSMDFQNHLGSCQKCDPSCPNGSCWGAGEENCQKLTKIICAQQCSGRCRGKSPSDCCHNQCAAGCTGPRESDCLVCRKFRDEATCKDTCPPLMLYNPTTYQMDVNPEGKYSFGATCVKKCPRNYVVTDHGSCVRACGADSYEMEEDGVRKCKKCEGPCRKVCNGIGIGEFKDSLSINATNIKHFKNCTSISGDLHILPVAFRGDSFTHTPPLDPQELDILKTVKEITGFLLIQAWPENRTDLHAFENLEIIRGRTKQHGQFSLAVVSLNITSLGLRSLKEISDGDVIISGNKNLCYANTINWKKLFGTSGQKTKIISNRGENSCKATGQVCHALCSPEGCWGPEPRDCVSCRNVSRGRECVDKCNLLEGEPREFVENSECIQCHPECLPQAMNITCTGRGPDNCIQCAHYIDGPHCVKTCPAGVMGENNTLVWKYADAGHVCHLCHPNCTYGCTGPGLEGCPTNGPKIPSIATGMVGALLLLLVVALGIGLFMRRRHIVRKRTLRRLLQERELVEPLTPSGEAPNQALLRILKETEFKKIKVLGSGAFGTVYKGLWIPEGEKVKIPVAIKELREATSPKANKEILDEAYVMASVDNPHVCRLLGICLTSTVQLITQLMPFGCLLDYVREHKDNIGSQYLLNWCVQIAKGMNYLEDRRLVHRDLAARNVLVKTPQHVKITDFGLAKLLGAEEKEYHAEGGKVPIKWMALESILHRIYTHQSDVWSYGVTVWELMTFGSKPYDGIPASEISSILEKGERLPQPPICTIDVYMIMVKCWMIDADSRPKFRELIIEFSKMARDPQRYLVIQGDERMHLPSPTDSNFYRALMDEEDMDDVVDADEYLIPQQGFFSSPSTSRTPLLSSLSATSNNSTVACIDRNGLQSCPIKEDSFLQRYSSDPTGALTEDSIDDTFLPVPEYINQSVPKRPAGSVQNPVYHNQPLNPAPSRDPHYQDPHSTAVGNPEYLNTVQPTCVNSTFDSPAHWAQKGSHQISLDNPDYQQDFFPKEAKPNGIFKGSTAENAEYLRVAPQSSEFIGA

Rattus norvegicus [12] = species on record: Rattus norvegicus; experiment: Adrenergic α2, Non-selective Eurofins-Panlabs radioligand binding assay; format: protein assay; details: Compound concentration 10.0 uM
[13] = target: C-C chemokine receptor type 5 (Homo sapiens) (UniProt P51681); experiment: Chemokine CCR5 Eurofins-Panlabs radioligand binding assay; details: Compound concentration 10.0 uM
[14] = (§3) Cholecystokinin CCK2 (CCKB) Eurofins-Panlabs radioligand binding assay; design: species or system Homo sapiens; ligand concentration 0.072 nM, non-specific ligand with concentration 1 µM Sincalide, incubation time 3 h, incubation temperature 25 °C
Homo sapiens [15] = species on record: Homo sapiens; experiment: as §3; design: ligand concentration 0.072 nM, non-specific ligand with concentration 1 µM Sincalide, incubation time 3 h, incubation temperature 25 °C
[16] = target: Galanin receptor type 1 (Homo sapiens) (UniProt P47211); experiment: Galanin GAL1 Eurofins-Panlabs radioligand binding assay; details: Compound concentration 10.0 uM
[17] = target: Melatonin receptor (Gallus gallus) (UniProt P49288+P51050+P49285); experiment: Melatonin MT, Non-Selective Eurofins-Panlabs radioligand binding assay; format: protein assay; details: Compound concentration 10.0 uM
[18] = target: Prostaglandin D2 receptor (Homo sapiens) (UniProt Q13258); experiment: Prostanoid DP Eurofins-Panlabs radioligand binding assay; details: Compound concentration 10.0 uM
[19] = target: Prostaglandin E2 receptor EP4 subtype (Homo sapiens) (UniProt P35408); experiment: Prostanoid EP4 Eurofins-Panlabs radioligand binding assay; design: ligand concentration 0.5 nM; details: Compound concentration 10.0 uM
[20] = target: Somatostatin receptor type 2 (Homo sapiens) (UniProt P30874); experiment: Somatostatin sst2 Eurofins-Panlabs radioligand binding assay; design: ligand concentration 0.1 nM; details: Compound concentration 10.0 uM
Sequence of Somatostatin receptor type 2 (Homo sapiens) (P30874 whole entry): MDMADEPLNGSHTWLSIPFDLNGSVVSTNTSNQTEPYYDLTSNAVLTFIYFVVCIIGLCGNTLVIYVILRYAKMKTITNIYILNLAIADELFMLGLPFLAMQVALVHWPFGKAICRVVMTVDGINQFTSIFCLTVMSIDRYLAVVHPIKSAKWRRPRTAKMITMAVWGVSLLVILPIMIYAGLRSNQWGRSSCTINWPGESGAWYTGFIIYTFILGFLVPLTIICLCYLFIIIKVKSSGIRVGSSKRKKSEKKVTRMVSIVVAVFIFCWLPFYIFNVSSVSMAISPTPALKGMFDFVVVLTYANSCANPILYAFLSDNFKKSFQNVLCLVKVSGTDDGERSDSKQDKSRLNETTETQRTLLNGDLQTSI

[21] = target: Endothelin receptor type B (Homo sapiens) (UniProt P24530); details: Compound concentration 10.0 uM
[22] = target: Glutamate NMDA receptor (Rattus norvegicus) (UniProt P35439+Q00959+Q00960+Q00961+Q62645+Q8VHN2+Q9R1M7); details: Compound concentration 10.0 uM
[23] = target: Histamine H1 receptor (Homo sapiens) (UniProt P35367); details: Compound concentration 10.0 uM
[24] = target: Mu-type opioid receptor (Homo sapiens) (UniProt P35372); details: Compound concentration 10.0 uM
Sequence of Mu-type opioid receptor (Homo sapiens) (P35372 whole entry): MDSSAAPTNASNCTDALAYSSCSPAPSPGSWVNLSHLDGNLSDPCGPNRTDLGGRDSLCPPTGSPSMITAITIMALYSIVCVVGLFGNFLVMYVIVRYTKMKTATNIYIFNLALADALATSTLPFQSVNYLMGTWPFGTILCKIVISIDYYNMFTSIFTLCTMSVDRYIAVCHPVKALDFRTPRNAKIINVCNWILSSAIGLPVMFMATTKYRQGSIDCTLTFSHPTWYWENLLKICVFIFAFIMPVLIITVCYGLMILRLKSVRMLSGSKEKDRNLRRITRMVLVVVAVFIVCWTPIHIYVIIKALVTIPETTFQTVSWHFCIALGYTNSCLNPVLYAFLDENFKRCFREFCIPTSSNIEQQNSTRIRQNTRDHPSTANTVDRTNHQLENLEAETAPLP

[25] = target: T2, Alpha-2B adrenergic receptor (Homo sapiens) (UniProt P18089); details: Compound concentration 10.0 uM
T2 sequence (whole entry): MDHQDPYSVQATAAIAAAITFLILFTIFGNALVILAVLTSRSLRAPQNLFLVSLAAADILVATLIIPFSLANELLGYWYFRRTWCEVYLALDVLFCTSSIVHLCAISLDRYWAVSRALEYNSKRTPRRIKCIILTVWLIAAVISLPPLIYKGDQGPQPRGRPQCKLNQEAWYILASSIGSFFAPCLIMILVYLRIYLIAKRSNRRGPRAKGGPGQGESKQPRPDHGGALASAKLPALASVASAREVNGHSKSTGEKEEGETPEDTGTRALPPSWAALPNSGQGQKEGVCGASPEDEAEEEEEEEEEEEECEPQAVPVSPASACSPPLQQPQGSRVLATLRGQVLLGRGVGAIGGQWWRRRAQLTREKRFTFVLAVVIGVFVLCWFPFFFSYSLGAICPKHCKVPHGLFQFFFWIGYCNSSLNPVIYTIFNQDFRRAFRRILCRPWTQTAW

[26] = target: Beta-3 adrenergic receptor (Homo sapiens, UniProt P13945)
Sequence of Beta-3 adrenergic receptor (P13945 whole entry, looked up): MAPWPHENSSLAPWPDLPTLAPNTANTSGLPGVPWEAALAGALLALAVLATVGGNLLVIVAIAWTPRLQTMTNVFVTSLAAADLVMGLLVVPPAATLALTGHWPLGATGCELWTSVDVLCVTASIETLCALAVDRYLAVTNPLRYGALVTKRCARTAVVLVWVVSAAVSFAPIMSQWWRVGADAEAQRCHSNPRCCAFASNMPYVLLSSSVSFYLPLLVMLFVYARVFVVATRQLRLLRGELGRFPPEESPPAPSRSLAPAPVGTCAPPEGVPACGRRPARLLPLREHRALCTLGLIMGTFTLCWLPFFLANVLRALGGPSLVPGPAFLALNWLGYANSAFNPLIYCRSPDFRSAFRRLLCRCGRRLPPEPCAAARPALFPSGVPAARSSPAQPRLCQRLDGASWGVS

Homo sapiens [27] = species on record: Homo sapiens

O=C(O)c1cc(-c2ccc(C3CCNCC3)cc2)c2ccc(-c3ccc(C(F)(F)F)cc3)cc2c1 [PPTN]
inhibition (Rattus norvegicus [1]): 26% | IC50 [2]: 3.3 µM | Ki [2]: 3.27 µM | inhibition (Caspase-1 (Homo sapiens)): -1% | inhibition [3]: -7% | inhibition (Rattus norvegicus [4]): -3% | inhibition [5]: 41% | inhibition [6]: -3% | inhibition [7]: 15% | inhibition ([8]; Compound concentration 0.01 uM): 11% | inhibition ([8]; Compound concentration 0.1 uM): 14% | inhibition ([8]; Compound concentration 1.0 uM): 4% | inhibition ([8]; Compound concentration 10.0 uM): 53% | IC50 [9]: 9.27 µM | inhibition (Caspase-6 (Homo sapiens)): -8% | inhibition ([10]; Compound concentration 0.1 uM): -8% | inhibition ([10]; Compound concentration 1.0 uM): -5% | inhibition ([10]; Compound concentration 10.0 uM): 51% | inhibition ([10]; Compound concentration 100.0 uM): 70% | IC50 (Phosphodiesterase PDE1): 17.6 µM | IC50 [11]: 4.59 µM | inhibition ([11]; Compound concentration 0.01 uM): -6% | inhibition ([11]; Compound concentration 0.1 uM): -3% | inhibition ([11]; Compound concentration 1.0 uM): 12% | inhibition ([11]; Compound concentration 10.0 uM): 74% | inhibition (Rattus norvegicus [12]): -1% | inhibition [13]: 4% | IC50 [14]: 10 µM | inhibition (Homo sapiens [15]; Compound concentration 0.01 uM): 3% | inhibition (Homo sapiens [15]; Compound concentration 0.1 uM): -1% | inhibition (Homo sapiens [15]; Compound concentration 1.0 uM): 0% | inhibition (Homo sapiens [15]; Compound concentration 10.0 uM): 48% | inhibition [16]: 19% | inhibition [17]: -7% | inhibition [18]: 12% | inhibition [19]: 37% | inhibition [20]: 29% | inhibition [21]: -1% | inhibition [22]: -4% | inhibition [23]: -1% | inhibition [24]: -1% | inhibition [25]: -1% | inhibition ([26]; Compound concentration 0.01 uM): -2% | inhibition ([26]; Compound concentration 0.1 uM): -8% | inhibition ([26]; Compound concentration 1.0 uM): 0% | inhibition ([26]; Compound concentration 10.0 uM): 53% | inhibition (Homo sapiens [27]; Compound concentration 0.01 uM): -3% | inhibition (Homo sapiens [27]; Compound concentration 0.1 uM): -3% | inhibition (Homo sapiens [27]; Compound concentration 1.0 uM): -8% | inhibition (Homo sapiens [27]; Compound concentration 10.0 uM): 67%
